Measured values from ChEMBL document CHEMBL1137202, “Synthesis and biological activity of new potential agonists for the human adenosine A2A receptor” (J Med Chem, 2004).

Tests used:
Cavia porcellus [1] = organism: Cavia porcellus; test: Concentration-Relaxation Studies was exerted on Guinea Pig Tracheal Rings Precontracted by Carbachol by the compound in presence of Adenosine antagonist 8-PT ( E-4 M); assay type: functional, organism-based; conditions: Trachea
Cavia porcellus [2] = organism: Cavia porcellus; test: Concentration-Relaxation Studies was exerted on Guinea Pig Tracheal Rings Precontracted by Carbachol by the compound in presence of Adenosine antagonist Alloxazine ( E-4 M); assay type: functional, organism-based; conditions: Trachea
Cavia porcellus [3] = organism: Cavia porcellus; test: Concentration-Relaxation Studies was exerted on Guinea Pig Tracheal Rings Precontracted by Carbachol by the compound in presence of Adenosine antagonist CSC ( E-4 M); assay type: functional, organism-based; conditions: Trachea
Cavia porcellus [4] = organism: Cavia porcellus; test: Concentration-Relaxation Studies was exerted on Guinea Pig Tracheal Rings Precontracted by Carbachol by the compound in presence of Adenosine antagonist DMPX ( E-4 M); assay type: functional, organism-based; conditions: Trachea
Adenosine receptor A2a [5] = molecular target: T1, Adenosine receptor A2a (Homo sapiens, UniProt P29274)
Description: Potency against cAMP formation in CHO cells expressing recombinant human A2A receptor

Adenosine receptor A1 = molecular target: T2, Adenosine receptor A1 (Homo sapiens, UniProt P30542); test: Inhibition of [3H]DPCPX binding to human adenosine A1 receptor expressed in CHO cells; assay type: cell-based
T2 sequence (P30542 whole entry): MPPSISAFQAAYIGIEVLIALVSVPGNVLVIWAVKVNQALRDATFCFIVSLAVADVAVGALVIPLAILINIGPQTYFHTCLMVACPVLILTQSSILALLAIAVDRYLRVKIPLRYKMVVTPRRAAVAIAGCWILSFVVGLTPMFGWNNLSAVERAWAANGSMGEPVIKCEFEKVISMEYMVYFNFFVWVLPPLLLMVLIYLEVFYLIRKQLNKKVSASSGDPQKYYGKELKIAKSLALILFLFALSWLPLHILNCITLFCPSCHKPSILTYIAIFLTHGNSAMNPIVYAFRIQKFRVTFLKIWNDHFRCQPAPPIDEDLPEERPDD

Adenosine receptor A2a [6] = molecular target: Adenosine receptor A2a (Rattus norvegicus, UniProt P30543)
Description: Efficacy against phenylephrine precontracted tissue relaxation in rat aorta

Adenosine receptor A2a [7] = molecular target: T1, Adenosine receptor A2a; test: biochemical
Description: Inhibition of [3H]ZM-241385 binding to human adenosine A2A receptor expressed in HeLa cells

Adenosine receptor A2b [8] = molecular target: T3, Adenosine receptor A2b (Homo sapiens, UniProt P29275); test: Inhibition of [3H]DPCPX binding to human adenosine A2B receptor expressed in HEK293 cells; assay type: cell-based
T3 sequence (P29275 whole entry): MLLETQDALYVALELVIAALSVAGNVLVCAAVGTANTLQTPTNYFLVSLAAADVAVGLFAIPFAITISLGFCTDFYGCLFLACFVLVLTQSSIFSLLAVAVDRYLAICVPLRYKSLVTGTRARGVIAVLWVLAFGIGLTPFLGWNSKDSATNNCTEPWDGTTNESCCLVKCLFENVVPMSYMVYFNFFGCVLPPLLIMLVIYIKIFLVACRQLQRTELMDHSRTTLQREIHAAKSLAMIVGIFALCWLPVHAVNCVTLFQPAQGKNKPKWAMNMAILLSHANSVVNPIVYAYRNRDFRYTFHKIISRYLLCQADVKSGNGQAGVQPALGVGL

Adenosine receptor A2b [9] = molecular target: T3, Adenosine receptor A2b; test: Potency against cAMP formation in CHO cells expressing recombinant human A2B receptor; assay type: functional, cell-based
Adenosine receptor A3 = molecular target: T4, Adenosine receptor A3 (Homo sapiens, UniProt P0DMS8); test: Inhibition of [3H]NECA binding to human adenosine A3 receptor expressed in HeLa cells; assay type: cell-based
T4 sequence (P0DMS8 whole entry): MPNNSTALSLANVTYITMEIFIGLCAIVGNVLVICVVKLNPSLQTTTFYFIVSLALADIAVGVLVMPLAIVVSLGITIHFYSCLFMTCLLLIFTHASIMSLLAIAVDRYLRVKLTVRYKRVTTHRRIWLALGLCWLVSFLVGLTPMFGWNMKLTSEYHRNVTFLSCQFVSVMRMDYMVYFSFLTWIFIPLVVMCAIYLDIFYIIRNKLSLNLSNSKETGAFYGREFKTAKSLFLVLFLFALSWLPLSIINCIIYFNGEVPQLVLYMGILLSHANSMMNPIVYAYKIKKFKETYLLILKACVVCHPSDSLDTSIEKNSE

[10] = molecular target: Adenosine receptor A2b (Cavia porcellus); test: Relative efficacy against phenylephrine precontracted tissue relaxation in Guinea pig aorta
[11] = system: Adenosine receptor A2b (Cavia porcellus); test: Relative efficacy against phenylephrine precontracted tissue relaxation in Guinea pig aorta compared to NECA

T1 sequence (P29274 whole entry): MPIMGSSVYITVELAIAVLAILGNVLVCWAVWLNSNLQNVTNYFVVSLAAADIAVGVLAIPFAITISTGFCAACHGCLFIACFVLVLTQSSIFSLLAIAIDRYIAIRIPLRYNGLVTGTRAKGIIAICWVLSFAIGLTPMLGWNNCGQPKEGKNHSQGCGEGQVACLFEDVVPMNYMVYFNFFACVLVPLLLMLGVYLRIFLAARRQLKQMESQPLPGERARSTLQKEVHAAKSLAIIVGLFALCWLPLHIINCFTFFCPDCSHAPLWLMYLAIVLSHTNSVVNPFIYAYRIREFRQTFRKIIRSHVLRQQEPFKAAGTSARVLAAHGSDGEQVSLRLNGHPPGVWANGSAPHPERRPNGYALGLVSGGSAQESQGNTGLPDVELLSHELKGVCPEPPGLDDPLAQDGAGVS
Adenosine receptor A2a (Rattus norvegicus, UniProt P30543), sequence (P30543 whole entry): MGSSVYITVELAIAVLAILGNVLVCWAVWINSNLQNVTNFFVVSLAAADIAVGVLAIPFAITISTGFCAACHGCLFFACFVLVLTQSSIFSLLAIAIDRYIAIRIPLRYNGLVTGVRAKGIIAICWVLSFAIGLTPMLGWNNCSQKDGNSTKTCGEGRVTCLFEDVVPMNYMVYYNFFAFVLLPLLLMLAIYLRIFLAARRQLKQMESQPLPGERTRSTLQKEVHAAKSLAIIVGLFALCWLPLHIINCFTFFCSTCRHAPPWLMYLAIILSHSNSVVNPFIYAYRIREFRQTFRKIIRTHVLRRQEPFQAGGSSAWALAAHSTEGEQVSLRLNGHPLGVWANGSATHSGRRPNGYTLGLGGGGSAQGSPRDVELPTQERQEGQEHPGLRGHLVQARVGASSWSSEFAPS

SMILES	EC50 (Cavia porcellus [1])	EC50 (Cavia porcellus [2])	EC50 (Cavia porcellus [3])	EC50 (Cavia porcellus [4])	EC50 (Adenosine receptor A2a [5])	Ki (Adenosine receptor A1)	EC50 (Adenosine receptor A2a [6])	Ki (Adenosine receptor A2a [7])	Ki (Adenosine receptor A2b [8])	EC50 (Adenosine receptor A2b [9])	Ki (Adenosine receptor A3)	EC50 [10]	Emax [11]
CCNC(=O)[C@H]1O[C@@H](n2cnc3c(N)ncnc32)[C@H](O)[C@@H]1O [NECA]	65000 nM	88000 nM	84000 nM	77000 nM									
Nc1ncnc2c1ncn2[C@@H]1O[C@H](CO)[C@@H](O)[C@H]1O [ADENOSINE]	460000 nM	550000 nM	570000 nM	340000 nM									
CCn1nnc([C@H]2O[C@@H](n3cnc4c(N)nc(N[C@H](CO)Cc5ccccc5)nc43)[C@H](O)[C@@H]2O)n1 [GW-328267]	64000 nM	88000 nM	51000 nM	46000 nM	8.8 nM	369 nM	10 nM	46 nM					
CCn1nnc([C@H]2O[C@@H](n3cnc4c(N)nc(N[C@H](CO)Cc5ccc([N+](=O)[O-])cc5)nc43)[C@H](O)[C@@H]2O)n1					3.1 nM	> 10000 nM		48 nM	3660 nM	1200 nM	400 nM		
CCn1nnc([C@H]2O[C@@H](n3cnc4c(N)nc(N[C@H](CO)Cc5ccc(Br)cc5)nc43)[C@H](O)[C@@H]2O)n1					1.6 nM	310 nM	6.7 nM	5 nM	2260 nM	560 nM	83 nM	1300 nM	125%
CCn1nnc([C@H]2O[C@@H](n3cnc4c(N)nc(N[C@H](CO)Cc5ccc(O)cc5)nc43)[C@H](O)[C@@H]2O)n1					8 nM		2.9 nM	5 nM			140 nM		
CCn1nnc([C@H]2O[C@@H](n3cnc4c(N)nc(N[C@H](CO)Cc5ccc(Cl)cc5)nc43)[C@H](O)[C@@H]2O)n1		38000 nM	17000 nM		97 nM	670 nM		270 nM	2720 nM	4700 nM	288 nM		
CCn1nnc([C@H]2O[C@@H](n3cnc4c(N)nc(N[C@H](CO)Cc5ccc(OC)cc5)nc43)[C@H](O)[C@@H]2O)n1		36000 nM	22000 nM	36000 nM	1.4 nM	> 10000 nM		38 nM	1180 nM	680 nM	130 nM		
CCn1nnc([C@H]2O[C@@H](n3cnc4c(N)nc(N[C@H](C)Cc5ccc(OC)cc5)nc43)[C@H](O)[C@@H]2O)n1		15000 nM	26000 nM	23000 nM	3 nM	356 nM	4 nM	1 nM			100 nM		
